# Earlier results as cited in patent US11555007B2, “Compositions and methods for the treatment of neurological diseases” (Cellix Bio Private Limited, priority 2018, dated 2023).
# Tested on: unipolar or bipolar patients in a major depressive episode
# Conditions: intravenous ketamine 0.5 mg/kg versus saline; all 8 treated patients
compound,measurement,value
"CNC1(c2ccccc2Cl)CCCCC1=O (stereo not shown) [ketamine, 2-(2-chlorophenyl)-2-(methylamino)cyclohexan-1-one]",improvement in depressive symptoms,significant improvement in depressive symptoms
